According to ChEMBL document CHEMBL1938371, “Discovery of AZD2932, a new Quinazoline Ether Inhibitor with high affinity for VEGFR-2 and PDGFR tyrosine kinases” (Bioorg Med Chem Lett, 2012):
Blank lines part the entries; values can stand above or below the molecule they belong to.

Legend:
Cytochrome P450 2C9 = Cytochrome P450 2C9 (Homo sapiens, UniProt P11712); assay: Inhibition of CYP2C9; assay type: ADME
[1] = Clearance in rat at 2 mg/kg; assay type: ADME, organism-based; design: dose 2 mg/kg; settings: in vivo
Rattus norvegicus = assay: Hepatic blood flow in rat at 0.5 to 2 mg/kg; assay type: ADME, organism-based, Liver; design: dose 0.5-2 mg/kg; settings: in vivo
[2] = Clearance in dog at 2 mg/kg; assay type: ADME, organism-based, Canis lupus familiaris; design: dose 2 mg/kg; settings: in vivo
Canis familiaris = assay: Hepatic blood flow in dog at 0.5 to 2 mg/kg; assay type: ADME, organism-based, Canis lupus familiaris, Liver; design: dose 0.5-2 mg/kg; settings: in vivo
[3] = Volume of distribution at steady state in rat at 2 mg/kg; assay type: ADME, organism-based; design: dose 2 mg/kg; settings: in vivo, read-out: Vdss
[4] = Volume of distribution at steady state in dog at 2 mg/kg; assay type: ADME, organism-based, Canis lupus familiaris; design: dose 2 mg/kg; settings: in vivo, read-out: Vdss
[5] = Terminal half life in rat at 2 mg/kg, iv; assay type: ADME, organism-based; design: dose 2 mg/kg, route intravenous; settings: in vivo, read-out: beta t1/2 (converted)
[6] = Terminal half life in dog at 2 mg/kg, iv; assay type: ADME, organism-based, Canis lupus familiaris; design: dose 2 mg/kg, route intravenous; settings: in vivo, read-out: beta t1/2 (converted)
[7] = Half life in rat at 2 mg/kg, po; assay type: ADME, organism-based; design: dose 2 mg/kg, route oral; settings: in vivo
[8] = Half life in dog at 2 mg/kg, po; assay type: ADME, organism-based, Canis lupus familiaris; design: dose 2 mg/kg, route oral; settings: in vivo
[9] = Oral bioavailability in rat at 2 to 5 mg/kg; assay type: ADME, organism-based; settings: in vivo
[10] = Oral bioavailability in dog at 2 to 5 mg/kg; assay type: ADME, organism-based, Canis lupus familiaris; settings: in vivo
[11] = Fraction unbound in human serum; assay type: ADME, cell-free
[12] = Fraction unbound in dog serum; assay type: ADME, cell-free, Canis lupus familiaris
[13] = target: Voltage-gated inwardly rectifying potassium channel KCNH2 (Homo sapiens, UniProt Q12809); assay: Inhibition of human ERG
Voltage-gated inwardly rectifying potassium channel KCNH2, sequence (Q12809 whole entry): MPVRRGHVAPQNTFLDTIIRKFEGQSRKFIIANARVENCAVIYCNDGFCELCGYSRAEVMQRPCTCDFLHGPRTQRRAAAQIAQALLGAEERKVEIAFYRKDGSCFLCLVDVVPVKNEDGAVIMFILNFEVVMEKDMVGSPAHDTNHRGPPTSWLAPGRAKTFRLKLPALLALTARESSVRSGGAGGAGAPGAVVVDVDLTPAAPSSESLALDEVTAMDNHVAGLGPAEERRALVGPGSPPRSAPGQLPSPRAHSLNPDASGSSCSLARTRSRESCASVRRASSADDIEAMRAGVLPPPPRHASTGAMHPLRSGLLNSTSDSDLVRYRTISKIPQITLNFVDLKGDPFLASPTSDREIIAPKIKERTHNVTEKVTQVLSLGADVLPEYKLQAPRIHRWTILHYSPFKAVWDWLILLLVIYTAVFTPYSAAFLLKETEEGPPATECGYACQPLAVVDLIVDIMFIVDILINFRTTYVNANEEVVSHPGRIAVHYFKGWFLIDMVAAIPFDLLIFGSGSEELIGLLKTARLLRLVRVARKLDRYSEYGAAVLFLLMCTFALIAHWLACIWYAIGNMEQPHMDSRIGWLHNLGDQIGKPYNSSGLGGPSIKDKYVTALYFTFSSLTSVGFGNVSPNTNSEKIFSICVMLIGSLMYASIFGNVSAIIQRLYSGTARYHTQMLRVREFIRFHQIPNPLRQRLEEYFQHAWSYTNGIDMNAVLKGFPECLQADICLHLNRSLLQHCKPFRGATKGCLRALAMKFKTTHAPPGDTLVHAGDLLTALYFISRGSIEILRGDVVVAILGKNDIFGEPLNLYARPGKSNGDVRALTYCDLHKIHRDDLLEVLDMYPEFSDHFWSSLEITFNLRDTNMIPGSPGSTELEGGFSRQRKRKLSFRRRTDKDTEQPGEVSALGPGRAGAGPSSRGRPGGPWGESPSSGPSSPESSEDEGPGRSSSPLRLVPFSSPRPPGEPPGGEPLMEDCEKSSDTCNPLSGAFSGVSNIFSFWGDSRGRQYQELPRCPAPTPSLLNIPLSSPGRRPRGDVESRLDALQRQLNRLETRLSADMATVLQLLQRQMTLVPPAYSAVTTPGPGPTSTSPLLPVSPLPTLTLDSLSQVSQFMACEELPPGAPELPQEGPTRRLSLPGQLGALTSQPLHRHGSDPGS

[14] = Clearance in rat hepatocytes assessed per million cells; assay type: ADME, cell-based, Hepatocyte; settings: read-out: CLH
C6 = assay: Antitumor activity against rat C6 cells xenografted in nude mouse assessed as tumor growth inhibition at 12.5 to 50 mg/kg bid for 22 days; assay type: functional; settings: dose mg/kg 12.5-50
Calu-6 [15] = assay: Antitumor activity against human Calu6 cells xenografted in nude mouse assessed as tumor growth inhibition at 12.5 mg/kg bid; assay type: functional; settings: read-out: TGI
Calu-6 [16] = assay: Antitumor activity against human Calu6 cells xenografted in nude mouse assessed as tumor growth inhibition at 50 mg/kg bid; assay type: functional; settings: read-out: TGI
LoVo = assay: Antitumor activity against human LoVo cells xenografted in nude mouse assessed as tumor growth inhibition at 50 mg/kg bid for 22 days; assay type: functional; settings: 528 h, read-out: TGI
Mus musculus [17] = assay: Inhibition of VEGFR2 phosphorylation in C6 cells xenografted in nude mouse lungs at 3 to 50 mg/kg bid after 10 hrs by Western blot analysis; assay type: functional; settings: dose mg/kg 3-50
Mus musculus [18] = assay: Inhibition of PDGFRbeta phosphorylation in C6 cells xenografted in nude mouse lungs at 3 to 50 mg/kg bid after 10 hrs by Western blot analysis; settings: dose mg/kg 3-50
[19] = Clearance in dog at 3 mg/kg, iv; assay type: ADME, organism-based, Canis lupus familiaris; design: dose 3 mg/kg, route intravenous; settings: in vivo
[20] = Clearance in dog at 10 mg/kg, po; assay type: ADME, organism-based, Canis lupus familiaris; design: dose 10 mg/kg, route oral; settings: in vivo
[21] = Volume of distribution at steady state in dog at 3 mg/kg, iv; assay type: ADME, organism-based, Canis lupus familiaris; design: dose 3 mg/kg, route intravenous; settings: in vivo, read-out: Vdss
[22] = Oral bioavailability in rat at 2.7 mg/kg; assay type: ADME, organism-based; settings: in vivo
[23] = Oral bioavailability in dog at 10 mg/kg; assay type: ADME, organism-based, Canis lupus familiaris; settings: in vivo
[24] = Terminal half life in dog at 3 mg/kg, iv; assay type: ADME, organism-based, Canis lupus familiaris; design: dose 3 mg/kg, route intravenous; settings: in vivo, read-out: beta t1/2 (converted)
[25] = Half life in dog at 2.7 mg/kg, po; assay type: ADME, organism-based, Canis lupus familiaris; design: dose 2.7 mg/kg, route oral; settings: in vivo
[26] = Half life in dog at 3 mg/kg, po; assay type: ADME, organism-based, Canis lupus familiaris; design: dose 3 mg/kg, route oral; settings: in vivo

Cytochrome P450 2C9, sequence (P11712 whole entry): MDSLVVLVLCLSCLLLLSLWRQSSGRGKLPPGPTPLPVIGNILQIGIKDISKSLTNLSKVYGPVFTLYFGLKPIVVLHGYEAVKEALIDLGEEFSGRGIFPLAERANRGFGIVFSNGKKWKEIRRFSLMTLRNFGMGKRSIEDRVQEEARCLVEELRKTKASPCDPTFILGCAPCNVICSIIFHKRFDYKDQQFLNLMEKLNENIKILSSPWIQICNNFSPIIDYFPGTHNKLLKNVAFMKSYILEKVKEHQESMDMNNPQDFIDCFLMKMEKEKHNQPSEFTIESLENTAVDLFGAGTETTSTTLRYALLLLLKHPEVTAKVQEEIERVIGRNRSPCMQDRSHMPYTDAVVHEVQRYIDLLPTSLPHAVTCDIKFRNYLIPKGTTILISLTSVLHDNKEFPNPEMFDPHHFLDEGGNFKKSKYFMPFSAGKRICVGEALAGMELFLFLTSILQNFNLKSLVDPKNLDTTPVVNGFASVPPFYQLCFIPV

IC50 (Cytochrome P450 2C9): 8 µM
clearance [1]: 8.9 mL/min/kg
QH (Rattus norvegicus): 6%
clearance [2]: 3.3 mL/min/kg
QH (Canis familiaris): 9%
Vd [3]: 0.8 L/kg
Vd [4]: 0.9 L/kg
half-life [5]: 78 min
half-life [6]: 252 min
half-life [7]: 360 min
half-life [8]: 408 min
bioavailability [9]: 34%
bioavailability [10]: 23%
fraction unbound [11]: 0.033
fraction unbound [12]: 0.07
hepatocyte CLint [14]: 3.5 µL/min/1e6 cells
SMILES: COc1cc2ncnc(Oc3ccc(CC(=O)Nc4cnn(C(C)C)c4)cc3)c2cc1OC
IC50 [13]: 137 µM
TGI (C6): 64%
inhibition in vivo at 12.5 mg/kg (Calu-6 [15]): 72%
inhibition in vivo at 50 mg/kg (Calu-6 [16]): 81%
inhibition in vivo at 50 mg/kg (LoVo): 67%
inhibition (INH) (Mus musculus [17]): 60%
inhibition (INH) (Mus musculus [18]): 60%

clearance [19]: 1.7 mL/min/kg
CL/F [20]: 5.2 mL/min/kg
Vd [21]: 0.7 L/kg
bioavailability [22]: > 90%
bioavailability [23]: > 90%
half-life [24]: 282 min
half-life [25]: 258 min
half-life [26]: 408 min
SMILES: COc1cc2ncnc(Oc3ccc(CC(=O)Nc4cnn(C(C)C)c4)cc3)c2cc1OC.O=P(O)(O)O
